These results are taken from patent publication US12286429B2, “5-oxo-1,2,3,5,8,8a-hexahydroindolizine-3-carboxamide derivatives useful as a factor XIa inhibitors” (Janssen Pharmaceutica NV, priority 2021, dated 2025).

For assay [1], the target named is human plasma kallikrein (Homo sapiens, UniProt P03952). Briefly: Kallikrein inhibition assay utilizing a quenched AMC peptide substrate (FLINT). Format: biochemical. Conditions: 11-point, 3-fold serial dilution, top 1 μM; 30 min preincubation; 2 nM kallikrein; 50 μM Z-Gly-Pro-Arg-AMC; kinetic reads over 30 min. In a few lines: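 Human plasma kallikrein (2 nM final) was pre-incubated 30 min at room temperature with compound (11-point 3-fold series, top 1 μM, 2% DMSO) in Tris pH 7.5, NaCl, CaCl2, BSA, CHAPS buffer. Reaction started with 50 μM Z-Gly-Pro-Arg-AMC (KM 40 μM), and fluorescence (340/440 nm) was read kinetically over 30 min. IC50 came from a 4-parameter logistic fit.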
Sequence of human plasma kallikrein (P03952 391-638 limits assumed): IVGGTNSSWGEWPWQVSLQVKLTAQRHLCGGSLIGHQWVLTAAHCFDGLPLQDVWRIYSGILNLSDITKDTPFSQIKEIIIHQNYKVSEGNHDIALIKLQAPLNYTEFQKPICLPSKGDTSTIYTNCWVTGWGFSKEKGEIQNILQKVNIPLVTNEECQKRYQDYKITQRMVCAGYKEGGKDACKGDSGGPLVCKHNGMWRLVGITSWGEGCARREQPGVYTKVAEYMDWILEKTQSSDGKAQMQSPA
Sequence of human plasma kallikrein (P03952 20-390 partner limits assumed): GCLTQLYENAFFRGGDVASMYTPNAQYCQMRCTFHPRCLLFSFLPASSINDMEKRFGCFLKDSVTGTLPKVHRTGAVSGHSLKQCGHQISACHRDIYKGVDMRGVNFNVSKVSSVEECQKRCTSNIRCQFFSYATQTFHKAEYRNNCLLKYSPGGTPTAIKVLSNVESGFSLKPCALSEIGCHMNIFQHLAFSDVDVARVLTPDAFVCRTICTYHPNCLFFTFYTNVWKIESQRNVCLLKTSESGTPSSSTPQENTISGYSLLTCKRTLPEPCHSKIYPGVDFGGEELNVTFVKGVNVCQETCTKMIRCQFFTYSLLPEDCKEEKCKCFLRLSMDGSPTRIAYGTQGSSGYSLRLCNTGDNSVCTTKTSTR

The target in assay [2] is Factor XIa (Homo sapiens, UniProt P03951). Briefly: Factor XIa inhibition assay utilizing a fluorophore-quencher pair peptide substrate (FLINT). To be noted: 11-point, 3-fold serial dilution, top 100 nM; 30 min preincubation; 15 μM 5Fam-KLTRAETV-K5Tamra substrate; kinetic reads over 30 min; read-out: FXIa Inhibition IC50. Format: biochemical. In a few lines:
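FXIa ([…]) preincubated 30 min with compound (11-point, 3-fold, top 100 nM, 2% DMSO) in Tris pH 7.5, NaCl, CaCl2, BSA, CHAPS; 15 μM 5Fam-KLTRAETV-K5Tamra substrate then added. Fluorescence (485/520 nm) read kinetically over 30 min at room temperature; IC50 by 4-parameter fit.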

For orientation: IC50 means the midpoint of a concentration-inhibition curve.

Bounds are passed on as bounds.

Sequence of Factor XIa (P03951 388-625 limits assumed): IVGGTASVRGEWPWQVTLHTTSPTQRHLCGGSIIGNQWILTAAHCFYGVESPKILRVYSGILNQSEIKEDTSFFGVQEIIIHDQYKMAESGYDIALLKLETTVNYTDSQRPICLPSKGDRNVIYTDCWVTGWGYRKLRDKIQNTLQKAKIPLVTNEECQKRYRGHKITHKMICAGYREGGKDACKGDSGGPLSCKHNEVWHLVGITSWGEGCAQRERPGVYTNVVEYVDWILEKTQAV
Sequence of Factor XIa (P03951 19-387 partner limits assumed): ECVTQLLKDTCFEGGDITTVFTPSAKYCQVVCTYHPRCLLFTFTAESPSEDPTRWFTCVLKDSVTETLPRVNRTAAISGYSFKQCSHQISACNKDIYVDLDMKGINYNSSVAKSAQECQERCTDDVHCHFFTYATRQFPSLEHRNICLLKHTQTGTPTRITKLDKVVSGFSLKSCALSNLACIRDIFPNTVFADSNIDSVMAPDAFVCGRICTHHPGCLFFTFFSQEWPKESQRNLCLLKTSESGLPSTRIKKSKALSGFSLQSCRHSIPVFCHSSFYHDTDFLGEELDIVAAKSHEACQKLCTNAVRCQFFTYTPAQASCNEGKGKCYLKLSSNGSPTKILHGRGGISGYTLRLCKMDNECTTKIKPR

Regarding `CC(C)(O)c1nc2cc(NC(=O)[C@@H]3CCC4CC(c5c(-n6cnnn6)ccc(Cl)c5F)=CC(=O)N43)ccc2s1` (mixture of isomers) [compound 90], the IC50 in assay [1] was 109 nM; in assay [2], more than 50 nM.

On to `O=C(Nc1ccc2nn(C(F)F)cc2c1)[C@@H]1CC[C@@H]2CC(c3c(-n4cnnn4)ccc(Cl)c3F)=CC(=O)N21` (single isomer, unassigned) [ID No. 23], for which the IC50 is 31.1 nM in assay [1] and 8.3 nM in assay [2].
